Converted amounts (≈) assume the structure as drawn. Where two headings read alike, the source gives them in different places.
Legend:
[1] = test system: Staphylococcus aureus ATCC 29213; assay: Antibacterial MIC, CLSI M07-A10 dilution; assay type: cell-based; conditions: ATCC29213
[2] = test system: Staphylococcus aureus ATCC BAA-1556 (MERSA resistant); assay: Antibacterial MIC, CLSI M07-A10 dilution; assay type: cell-based; conditions: ATCCBAA1556
[3] = test system: Staphylococcus epidermidis; assay: Antibacterial MIC, CLSI M07-A10 dilution; assay type: cell-based
[4] = test system: Bacillus subtilis MTCC 441; assay: Antibacterial MIC, CLSI M07-A10 dilution; assay type: cell-based; conditions: MTCC441
[5] = test system: Enterococcus faecium ATCC 35667; assay: Antibacterial MIC, CLSI M07-A10 dilution; assay type: cell-based; conditions: ATCC35667
[6] = test system: Enterococcus faecium ATCC 51559 (VRE resistant); assay: Antibacterial MIC, CLSI M07-A10 dilution; assay type: cell-based
[7] = test system: Klebsiella pneumonia MTCC 618; assay: Antibacterial MIC, CLSI M07-A10 dilution; assay type: cell-based; conditions: Klebsiella pneumoniae, MTCC618
[8] = test system: Escherichia coli MTCC 443; assay: Antibacterial MIC, CLSI M07-A10 dilution; assay type: cell-based; conditions: MTCC443
[9] = test system: Pseudomonas aeruginosa MTCC 741; assay: Antibacterial MIC, CLSI M07-A10 dilution; assay type: cell-based; conditions: MTCC741
[10] = test system: Mycobacterium tuberculosis H37Rv strain; assay: Anti-tubercular alamar blue microplate MIC; assay type: cell-based; conditions: 168 h, M. tuberculosis H37Rv, seven days at 37° C., read-out: anti-mycobacterial activity (MIC)
[11] = target: T1, DNA gyrase from E. coli (Escherichia coli, UniProt P0AES4+P0AES6); assay: E. coli DNA gyrase inhibition (Inspiralis assay); assay type: biochemical
T1 construct: purchased Inspiralis
T1 sequence (P0AES4 whole entry, one chain of several): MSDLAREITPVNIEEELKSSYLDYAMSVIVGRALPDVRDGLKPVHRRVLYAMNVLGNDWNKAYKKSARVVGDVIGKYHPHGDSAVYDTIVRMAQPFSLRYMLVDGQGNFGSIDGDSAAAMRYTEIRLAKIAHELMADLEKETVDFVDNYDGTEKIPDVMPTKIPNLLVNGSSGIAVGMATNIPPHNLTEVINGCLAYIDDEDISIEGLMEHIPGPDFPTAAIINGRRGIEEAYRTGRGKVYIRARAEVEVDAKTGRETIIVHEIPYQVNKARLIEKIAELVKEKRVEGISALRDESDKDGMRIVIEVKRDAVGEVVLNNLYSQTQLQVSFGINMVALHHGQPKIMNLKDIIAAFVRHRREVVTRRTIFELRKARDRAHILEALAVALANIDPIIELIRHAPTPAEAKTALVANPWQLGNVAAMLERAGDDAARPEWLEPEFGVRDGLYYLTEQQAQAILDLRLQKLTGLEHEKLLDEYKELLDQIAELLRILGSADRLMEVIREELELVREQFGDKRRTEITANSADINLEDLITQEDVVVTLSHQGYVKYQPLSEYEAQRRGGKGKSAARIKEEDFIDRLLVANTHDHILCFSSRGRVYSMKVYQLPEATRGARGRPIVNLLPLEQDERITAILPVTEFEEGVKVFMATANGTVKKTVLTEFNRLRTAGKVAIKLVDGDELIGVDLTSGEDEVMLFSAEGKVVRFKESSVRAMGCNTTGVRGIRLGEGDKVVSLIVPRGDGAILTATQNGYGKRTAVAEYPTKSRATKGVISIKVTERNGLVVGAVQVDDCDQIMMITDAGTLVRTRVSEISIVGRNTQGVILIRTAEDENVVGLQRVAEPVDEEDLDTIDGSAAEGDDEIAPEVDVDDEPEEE
Method: Inhibitory potencies were investigated utilizing the Inspiralis assay on streptavidin-coated 96-well microtiter plates. First, the plates were rehydrated with buffer (20 mM Tris-HCl with pH 7.6, 0.01% w/v BSA, 0.05% v/v Tween 20, 137 mM NaCl) and the biotinylated oligonucleotide was then immobilized. After washing off the unbound oligonucleotide, the enzyme test was performed. The reaction volume of 30 μL in buffer (35 mM Tris×HCl with pH 7.5, 4 mM MgCl2, 24 mM KCl, 2 mM DTT, 1.8 mM spermidine, 1 mM ATP, 6.5% w/v glycerol, 0.1 mg/mL albumin) contained 1.5 U of DNA gyrase from E. coli, 0.75 μg of relaxed pNO1 plasmid, and 3 μL solution of the inhibitor in 10% DMSO and 0.008% Tween 20. Reaction solutions were incubated at 37° C. for 30 min. After that, the TF buffer (50 mM NaOAc with pH 5.0, 50 mM NaCl and 50 mM MgCl2) was added to terminate the enzymatic reaction. After additional incubation for 30 min at rt, during which biotinoligonucleotide-plasmid triplex was formed, the unbound plasmid was washed off using TF buffer and SybrGOLD in T10 buffer (10 mM Tris HCl with pH 8.0 and 1 mM EDTA) was added. The fluorescence was measured with a microplate reader (BioTek Synergy H4, excitation: 485 nm, emission: 535 nm). Initial screening was done at 100 or 10 μM concentration of inhibitors. […] GraphPad Prism software was used to calculate the IC50 values. […]

| SMILES | MIC [1] | MIC [2] | MIC ([3]; read-out: MIC) | MIC ([4]; Bacillus subtilis MTCC 441, read-out: MIC) | MIC ([5]; Enterococcus faecium ATCC 35667, read-out: MIC) | MIC ([6]; Enterococcus faecium ATCC 51559 (VRE resistant), read-out: MIC) | MIC ([7]; Klebsiella pneumonia MTCC 618, read-out: MIC) | MIC ([8]; Escherichia coli MTCC 443, read-out: MIC) | MIC ([9]; Pseudomonas aeruginosa MTCC 741, read-out: MIC) | MIC [10] | IC50 [11] | MIC [3] | MIC ([4]; Bacillus subtilis) | MIC ([5]; Enterococcus faecium) | MIC ([6]; Enterococcus faecium) | MIC [7] | MIC ([8]; Escherichia coli) | MIC ([9]; Pseudomonas aeruginosa) |
| --- | --- | --- | --- | --- | --- | --- | --- | --- | --- | --- | --- | --- | --- | --- | --- | --- | --- | --- |
| CCCCCN(C)Cc1cc(C(=O)O)ccc1-c1cc2cc3cc(F)cc(NC)c3nc2[nH]1 [Compound 6, 4-(6-fluoro-8-(methylamino)-1H-pyrrolo[2,3-b]quinolin-2-yl)-3-((methyl(pentyl)amino)methyl)benzoic acid] | 0.75 µg/mL (≈ 1.67 µM) | 0.75 µg/mL (≈ 1.67 µM) | 1 µg/mL (≈ 2.23 µM) | 0.5 µg/mL (≈ 1.11 µM) | 0.75 µg/mL (≈ 1.67 µM) | 1 µg/mL (≈ 2.23 µM) | 1 µg/mL (≈ 2.23 µM) | 4 µg/mL (≈ 8.92 µM) | 0.75 µg/mL (≈ 1.67 µM) | 4 µg/mL (≈ 8.92 µM) | 25 nM | – | – | – | – | – | – | – |
| CN[C@H](CC(C)C)C(=O)N[C@H]1C(=O)N[C@@H](CC(N)=O)C(=O)N[C@H]2C(=O)N[C@H]3C(=O)N[C@H](C(=O)N[C@H](C(=O)O)c4cc(O)cc(O)c4-c4cc3ccc4O)[C@H](O)c3ccc(c(Cl)c3)Oc3cc2cc(c3O[C@@H]2O[C@H](CO)[C@@H](O)[C@H](O)[C@H]2O[C@H]2C[C@](C)(N)[C@H](O)[C@H](C)O2)Oc2ccc(cc2Cl)[C@H]1O [Vancomycin, reference compound] | – | – | – | – | – | – | – | – | – | – | – | 1 µg/mL (≈ 0.69 µM) | 0.5 µg/mL (≈ 0.345 µM) | 0.5 µg/mL (≈ 0.345 µM) | > 128 µg/mL | > 128 µg/mL | > 128 µg/mL | > 128 µg/mL |

Source: patent US11731970B1, “Pyrrolo[2,3-b]quinoline compounds as antibacterial agents” (KING FAISAL UNIVERSITY, priority 2023, dated 2023)
